Drawing on patent US8933075B2, “Compounds useful as antiviral agents, compositions, and methods of use” (priority 2010, dated 2015), this text covers EC50 for 59 compounds.

The experiment relates to A/Udorn/72 (H3N2) virus. Briefly: Plaque assay in MDCK cells: EC50 by reduction of plaque number. To be noted: MDCK. The experiment is classed as cell-based, influenza virus.

What is called EC50 is the concentration at which the effect is half-maximal. A high value points to weaker potency.

On to `O=C1/C(=C/c2oc(-c3ccc(F)cc3)cc2CCCCO)SC(=S)N1C1C2CC3CC(C2)CC1C3` (centres unmarked) [Compound 116], for which the EC50 is less than 100 nM.

Take `CC(C)(C)OC(=O)N[C@@H](CC(N)=O)C(=O)OCCCc1cc(-c2ccc(Cl)cc2)oc1/C=C1\SC(=S)N(C2CC3CCC2C3)C1=O` (some centres unmarked) [Compound 148]: the half-maximal effective concentration (EC50) is less than 100 nM.

As for `COc1cccc(-c2cc(CCCO)c(/C=C3\SC(=S)N(C4C5CC6CC(C5)CC4C6)C3=O)s2)c1` (centres unmarked) [Compound 282], the concentration giving a half-maximal response (EC50) was less than 100 nM.

In turn, `CC(C)(C)OC(=O)N[C@@H](CC(N)=O)C(=O)OCCCC#Cc1cc(-c2cccc(Cl)c2)sc1/C=C1\SC(=S)N(C2CC3CCC2C3)C1=O` (some centres unmarked) [Compound 311] gave an EC50 of less than 100 nM.

In turn, `O=C1/C(=C/c2coc3ccc(Br)cc3c2=O)SC(=S)N1C1CCC2CCCCC2C1` (centres unmarked) [Compound 206] yielded an EC50 of less than 100 nM.

On to `Cn1c(-c2ccc(Cl)cc2)cc(CCCCCO)c1/C=C1\SC(=S)N(C2CC3CCC2C3)C1=O` (centres unmarked) [Compound 260], for which the EC50 is less than 100 nM.

Regarding `COc1cc(OC)cc(-c2cc(/C=C/C(=O)O)c(/C=C3\SC(=S)N(C4C5CC6CC(C5)CC4C6)C3=O)o2)c1` (centres unmarked) [Compound 131], the 50% effective concentration (EC50) is less than 100 nM.

Take `O=C1/C(=C/c2oc(-c3cccc(F)c3)cc2CCCCCO)SC(=S)N1C1C2CC3CC(C2)CC1C3` (centres unmarked) [Compound 344]: the EC50 is less than 100 nM.

Take `O=C1/C(=C/c2oc(-c3ccc(C(F)(F)F)cc3)cc2CCCCCO)SC(=S)N1C1C2CC3CC(C2)CC1C3` (centres unmarked) [Compound 338]: the 50% effective concentration (EC50) was less than 100 nM.

In turn, `COc1cc(O)cc(-c2cc(CCCNC(=O)[C@@H](N)CCCN=C(N)N)c(/C=C3\SC(=S)N(C4CC5CCC4C5)C3=O)o2)c1` (some centres unmarked) [Compound 175] had a concentration giving a half-maximal response (EC50) of less than 100 nM.

Consider `COc1cc(OC)cc(-c2cc(CCCC(C(=O)O)C(=O)O)c(/C=C3\SC(=S)N(C4CC5CCC4C5)C3=O)o2)c1` (centres unmarked) [Compound 134], for which the 50% effective concentration (EC50) was less than 100 nM.

`CC(C)(C)OC(=O)N[C@@H](CC(N)=O)C(=O)N1CCN(CCCCCc2cc(-c3ccc(Cl)cc3)[nH]c2/C=C2\SC(=S)N(C3CC4CCC3C4)C2=O)CC1` (some centres unmarked) [Compound 255] yielded an EC50 of less than 100 nM.

Compound `N=C(N)NCCCc1cc(-c2ccc(Cl)cc2)oc1/C=C1\SC(=S)N(C2CC3CCC2C3)C1=O` (centres unmarked) [Compound 197] gave a concentration giving a half-maximal response (EC50) of less than 100 nM.

With `O=C1/C(=C/c2cc(CCCO)c(-c3ccc(Cl)cc3)n2Cc2ccccc2)SC(=S)N1C1CC2CCC1C2` (centres unmarked) [Compound 256], the EC50 was less than 100 nM.

For the compound `COc1cccc(-c2cc(CCCO)c(/C=C3\SC(=S)N(C4C5CC6CC(C5)CC4C6)C3=O)o2)c1` (centres unmarked) [Compound 352], the EC50 was less than 100 nM.

In turn, `COc1cc(OC)cc(-c2cc(CCCCOC(=O)[C@]3(O)C[C@@H](O)[C@@H](O)[C@H](O)C3)c(/C=C3\SC(=S)N(C4CC5CCC4C5)C3=O)o2)c1` (some centres unmarked) [Compound 357] gave a half-maximal effective concentration (EC50) of less than 100 nM.

With `O=C1/C(=C/c2ccc(-c3c(O)c4ccc(O)cc4oc3=O)o2)SC(=S)N1C1CC2CCC1C2` (centres unmarked) [Compound 324], the concentration giving a half-maximal response (EC50) is less than 100 nM.

For `CC(C)(C)N1C(=O)C[C@@H](C(=O)OCCCCCc2cc(-c3cccc(Cl)c3)sc2/C=C2\SC(=S)N(C3C4CC5CC(C4)CC3C5)C2=O)NC1=O` (some centres unmarked) [Compound 309], the concentration for a half-maximal effect (EC50) is less than 100 nM.

Compound `COc1cc(OC)cc(-c2cc(CCC(=O)O)c(/C=C3\SC(=S)N(C4CC5CCC4C5)C3=O)o2)c1` (centres unmarked) [Compound 132] returned an EC50 of less than 100 nM.

Turning to `COc1cc(OC)cc(-c2cc(CCCNC(=O)[C@H](CC(C)C)NC(=O)OCC3c4ccccc4-c4ccccc43)c(/C=C3\SC(=S)N(C4CC5CCC4C5)C3=O)o2)c1` (some centres unmarked) [Compound 159], the EC50 is less than 100 nM.

In turn, `COc1cc(O)cc(-c2cc(CCCC(C(=O)O)C(=O)O)c(/C=C3\SC(=S)N(C4C5CC6CC(C5)CC4C6)C3=O)o2)c1` (centres unmarked) [Compound 136] registered an EC50 of 100 to 250 nM.

The compound `O=C1/C(=C/c2cn(-c3ccc([N+](=O)[O-])cc3)cn2)SC(=S)N1C1CCCCCCCCCCC1` [Compound 64] returned an EC50 of less than 100 nM.

Take `O=C1/C(=C/c2oc(-c3ccc(F)cc3)cc2CCCCCCO)SC(=S)N1C1CC2CCC1C2` (centres unmarked) [Compound 107]: the concentration giving a half-maximal response (EC50) is less than 100 nM.

Compound `COc1cccc(-c2cc(CCCCCO)c(/C=C3\SC(=S)N(C4CC5CCC4C5)C3=O)[nH]2)c1` (centres unmarked) [Compound 235] registered an EC50 of less than 100 nM.

Consider `COc1ccc(-c2cc(CCCCCO)c(/C=C3\SC(=S)N(C4CC5CCC4C5)C3=O)o2)cc1` (centres unmarked) [Compound 341], for which the EC50 was less than 100 nM.

For `O=C1/C(=C/c2oc(-c3ccc(Cl)cc3)cc2CCCCO)SC(=S)N1C1C2CC3CC(C2)CC1C3` (centres unmarked) [Compound 335], the half-maximal effective concentration (EC50) is less than 100 nM.

For the compound `COc1cc(OC)cc(-c2cc(CCCOC(=O)[C@H](Cc3ccccc3)NC(=O)OC(C)(C)C)c(/C=C3\SC(=S)N(C4CC5CCC4C5)C3=O)o2)c1` (some centres unmarked) [Compound 142], the concentration giving a half-maximal response (EC50) was less than 100 nM.

As to `O=C1/C(=C/c2oc(-c3ccccc3)cc2CO)SC(=S)N1C1CC2CCC1C2` (centres unmarked) [Compound 93], the concentration giving a half-maximal response (EC50) is less than 100 nM.

For `Cn1c(/C=C2\SC(=S)N(C3CC4CCC3C4)C2=O)cc(C#CCCCO)c1-c1ccc(Cl)cc1` (centres unmarked) [Compound 265], the EC50 was less than 100 nM.

Regarding `O=C1/C(=C/c2cc3ccccc3s2)SC(=S)N1C1CC2CCC1C2` (centres unmarked) [Compound 214, (Z)-5-(benzo[b]thiophen-2-ylmethylene)-3-(bicyclo[2.2.1]heptan-2-yl)-2-thioxothiazolidin-4-one], the EC50 was less than 100 nM.

Turning to `COc1cccc(-c2cc(C#CCCCO)c(/C=C3\SC(=S)N(C4CC5CCC4C5)C3=O)s2)c1` (centres unmarked) [Compound 292], the EC50 is less than 100 nM.

Turning to `O=C1/C(=C/c2cc3ccccc3o2)SC(=S)N1C1C2CC3CC(C2)CC1C3` (centres unmarked) [Compound 218, 3-adamantan-2-yl-5-benzofuran-2-ylmethylene-2-thioxo-thiazolidin-4-one], the concentration giving a half-maximal response (EC50) is less than 100 nM.

For the compound `Cn1c(-c2ccc(Cl)cc2)cc(CCCO)c1/C=C1\SC(=S)N(C2CC3CCC2C3)C1=O` (centres unmarked) [Compound 258], the concentration giving a half-maximal response (EC50) was greater than 1000 nM.

`CC(C)(C)N1C(=O)C[C@@H](C(=O)OCCCCCc2cc(-c3ccc(Cl)cc3)[nH]c2/C=C2\SC(=S)N(C3C4CC5CC(C4)CC3C5)C2=O)NC1=O` (some centres unmarked) [Compound 251] showed an EC50 of less than 100 nM.

Compound `O=C1/C(=C/c2cn(-c3ccc([N+](=O)[O-])cc3)cn2)SC(=S)N1C1CCCCCC1` [Compound 63] showed a half-maximal effective concentration (EC50) of 250 to 1000 nM.

In turn, `Cn1c(/C=C2\SC(=S)N(C3CC4CCC3C4)C2=O)cc(C#CCCCOC(=O)[C@H](CC(N)=O)NC(=O)OC(C)(C)C)c1-c1ccc(Cl)cc1` (some centres unmarked) [Compound 272] yielded an EC50 of less than 100 nM.

`COc1ccc2oc(=O)c(-c3ccc(/C=C4\SC(=S)N(C5C6CC7CC(C6)CC5C7)C4=O)o3)c(O)c2c1` (centres unmarked) [Compound 70] registered a half-maximal effective concentration (EC50) of 100 to 250 nM.

`O=C1/C(=C/c2sc(-c3ccc(Cl)cc3)cc2-c2ccc(Cl)cc2)SC(=S)N1C1CC2CCC1C2` (centres unmarked) [Compound 274] yielded an EC50 of less than 100 nM.

Compound `COCOc1cc(=O)oc2ccc(-c3ccc(/C=C4\SC(=S)N(C5CC6CCC5C6)C4=O)o3)cc12` (centres unmarked) [Compound 76] showed an EC50 of 250 to 1000 nM.

For `O=C1/C(=C/c2ccc(-c3c(O)c4cc(O)ccc4oc3=O)o2)SC(=S)N1C1CC2CCC1C2` (centres unmarked) [Compound 325], the EC50 was less than 100 nM.

`O=C1/C(=C/c2[nH]c(-c3ccc(Cl)cc3)cc2CCCCCO)SC(=S)N1C1C2CC3CC(C2)CC1C3` (centres unmarked) [Compound 236] gave a 50% effective concentration (EC50) of less than 100 nM.

`COc1ccc(-c2ccc(/C=C3\SC(=S)N(C4CC5CCC4C5)C3=O)o2)cc1OCC(=O)N1CCC[C@H]1C(=O)O` (some centres unmarked) [Compound 80] showed an EC50 of less than 100 nM.

`O=C1/C(=C/c2ccc(-c3c(O)c4cc(OCc5ccc(Cl)cc5)ccc4oc3=O)o2)SC(=S)N1C1CC2CCC1C2` (centres unmarked) [Compound 321] came in with a 50% effective concentration (EC50) of less than 100 nM.

In turn, `O=C1/C(=C/c2sc(-c3ccc(Cl)cc3)cc2CCCO)SC(=S)N1C1CC2CCC1C2` (centres unmarked) [Compound 276] displayed an EC50 of less than 100 nM.

The compound `COc1cccc(-c2c(C#CCCCO)cc(/C=C3\SC(=S)N(C4CC5CCC4C5)C3=O)n2C)c1` (centres unmarked) [Compound 266] yielded an EC50 of less than 100 nM.

With `COc1cccc(-c2cc(CCCCCO)c(/C=C3\SC(=S)N(C4C5CC6CC(C5)CC4C6)C3=O)n2C)c1` (centres unmarked) [Compound 263], the 50% effective concentration (EC50) is 250 to 1000 nM.

For the compound `O=C1/C(=C/c2ccco2)SC(=S)N1C1C2CC3CC(C2)CC1C3` (centres unmarked) [Compound 209, (Z)-3-(adamantan-2-yl)-5-(furan-2-ylmethylene)-2-thioxothiazolidin-4-one], the EC50 lay in the range of 250 to 1000 nM.

The compound `O=C1/C(=C/c2[nH]c(-c3ccc(Cl)cc3)cc2CCCO)SC(=S)N1C1C2CC3CC(C2)CC1C3` (centres unmarked) [Compound 234] displayed an EC50 of less than 100 nM.

`Nc1ccc(-c2ccc(/C=C3\SC(=S)N(C4C5CC6CC(C5)CC4C6)C3=O)o2)cc1` (centres unmarked) [Compound 12]: the EC50 is less than 100 nM.

In the case of `COc1cc(OC)cc(-c2cc(CCCOC(=O)[C@@H](N)c3ccccc3)c(/C=C3\SC(=S)N(C4CC5CCC4C5)C3=O)o2)c1` (some centres unmarked) [Compound 154], the concentration for a half-maximal effect (EC50) was less than 100 nM.

`COc1cc(-c2ccc(/C=C3\SC(=S)N(C4C5CC6CC(C5)CC4C6)C3=O)o2)cc(OC)c1OC` (centres unmarked) [Compound 1] gave an EC50 of less than 100 nM.

As for `COc1cc(O)cc(-c2ccc(/C=C3\SC(=S)N(C4C5CC6CC(C5)CC4C6)C3=O)o2)c1` (centres unmarked) [Compound 18], the 50% effective concentration (EC50) is less than 100 nM.

In the case of `COC(=O)C[C@H](NC(=O)c1cc(-c2ccc(/C=C3\SC(=S)N(C4CC5CCC4C5)C3=O)o2)ccc1OC)C(=O)O` (some centres unmarked) [Compound 90], the EC50 fell in the range of 100 to 250 nM.

As for `O=C1/C(=C/c2sc(-c3ccc(Cl)cc3)cc2C#CCCCO)SC(=S)N1C1CC2CCC1C2` (centres unmarked) [Compound 291], the concentration giving a half-maximal response (EC50) was less than 100 nM.

As to `CC(C)(C)OC(=O)N[C@@H](CC(N)=O)C(=O)OCCCc1cc(-c2ccc(F)cc2)oc1/C=C1\SC(=S)N(C2CC3CCC2C3)C1=O` (some centres unmarked) [Compound 147], the EC50 was less than 100 nM.

Compound `CC(C)(C)OC(=O)N[C@@H](CC(N)=O)C(=O)OCCCC#Cc1cc(-c2cccc(Cl)c2)sc1/C=C1\SC(=S)N(C2C3CC4CC(C3)CC2C4)C1=O` (some centres unmarked) [Compound 312] came in with a 50% effective concentration (EC50) of less than 100 nM.

`O=C1/C(=C/c2cc(C#CCCCO)c(-c3ccc(Cl)cc3)s2)SC(=S)N1C1CC2CCC1C2` (centres unmarked) [Compound 288] came in with an EC50 of less than 100 nM.

The compound `COc1cccc(-c2cc(CCCCCO)c(/C=C3\SC(=S)N(C4CC5CCC4C5)C3=O)n2C)c1` (centres unmarked) [Compound 262] had an EC50 greater than 1000 nM.

As for `COc1cc(OC)cc(-c2cc(CCCCCCO)c(/C=C3\SC(=S)N(C4CC5CCC4C5)C3=O)o2)c1` (centres unmarked) [Compound 111], the concentration giving a half-maximal response (EC50) was less than 100 nM.
